These results are taken from PubChem BioAssay (NCI).

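These data come from cells grown in 96-well plates and exposed to compound for 48 hours at five concentrations. At the TGI there is no net growth.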 Where a SMILES comes first, the peptide text is derived from it. [ ]: non-standard residue; d: D form. The star is where a group is joined. ξ: configuration not given here. ξD = NC(CC(=O)O)C(=O)O; Boc = CC(C)(C)OC(=O)*; Aib = CC(C)(N)C(=O)O; OBn = c1ccc(CO*)cc1

Some test systems named below: SF-295 CNS; OVCAR-5 ovarian; EKVX NSCLC; KM12 colon; HCC-2998 colon; 786-0 renal; OVCAR-4 ovarian; NCI-H23 lung; HCT-15 colon; A549 NSCLC; MDA-N; SN12C renal; ACHN renal; SNB-19 CNS; HCT-116 colon; U251 CNS; BT-549 breast.
Experiment in all cases: NCI tumour cell line growth inhibition, 48 h

For `CN(C)c1ccc(N=C2N=C(Nc3ccccc3)C(=Nc3ccccc3)S2)cc1`, the TGI in the assay with SF-295 CNS, in the assay with OVCAR-5 ovarian, in the assay with EKVX NSCLC, in the assay with KM12 colon, in the assay with HCC-2998 colon and in the assay with 786-0 renal was greater than 100 µM throughout. The TGI in the assay with OVCAR-4 ovarian, in the assay on NCI-H23 lung, in the assay on HCT-15 colon, with A549 NSCLC, with MDA-N and in the assay on SN12C renal was greater than 100 µM each time. Also, the TGI in the assay with ACHN renal, in the assay with SNB-19 CNS and in the assay on HCT-116 colon was greater than 100 µM throughout.
Take `O=C1c2cc3c(cc2CC12Cc1ccccc1C2)CCC3`: the TGI in the assay with SF-295 CNS was greater than 100 µM; with OVCAR-5 ovarian, greater than 100 µM; in the assay on EKVX NSCLC, greater than 100 µM; in the assay with KM12 colon, 56.9 µM; with U251 CNS it was greater than 100 µM; with HCC-2998 colon, greater than 100 µM. For the same compound, the TGI in the assay with 786-0 renal is 64.8 µM; with OVCAR-4 ovarian, greater than 100 µM; with NCI-H23 lung, greater than 100 µM; in the assay on HCT-15 colon, greater than 100 µM; in the assay on A549 NSCLC, greater than 100 µM; in the assay with MDA-N it was 86.8 µM. The TGI with SN12C renal was greater than 100 µM; in the assay with ACHN renal, 97.7 µM; in the assay with SNB-19 CNS, greater than 100 µM; in the assay with HCT-116 colon, 47.5 µM.
With `NC(=O)N/N=C\CC(O)(C(F)(F)Cl)C(F)(F)Cl`, the TGI in the assay on SF-295 CNS, in the assay with EKVX NSCLC, in the assay with KM12 colon, in the assay with U251 CNS, in the assay with HCC-2998 colon and with 786-0 renal was greater than 10 µM each time. The TGI in the assay on OVCAR-4 ovarian, with NCI-H23 lung, in the assay with HCT-15 colon, with A549 NSCLC, in the assay on MDA-N and in the assay with SN12C renal was greater than 10 µM throughout. In addition, the TGI in the assay with ACHN renal, in the assay with SNB-19 CNS and in the assay on HCT-116 colon was greater than 10 µM in each case.
Turning to `C/C(O)=C(/C=N/C(=S)Nc1ccccc1)C(=O)Nc1ccccc1C`, the TGI in the assay on SF-295 CNS, in the assay on OVCAR-5 ovarian, in the assay with EKVX NSCLC, with KM12 colon, in the assay with U251 CNS and in the assay on HCC-2998 colon was greater than 100 µM throughout. In addition, the TGI in the assay on 786-0 renal, in the assay on OVCAR-4 ovarian, with NCI-H23 lung, in the assay with HCT-15 colon, with A549 NSCLC and with MDA-N was greater than 100 µM each time. Besides, the TGI with SN12C renal, in the assay with ACHN renal, in the assay with SNB-19 CNS and with HCT-116 colon was greater than 100 µM each time.
For `CCOC(=O)c1c(NC(=S)Nc2ccccc2)sc2c1CCN(C)C2`, the TGI in the assay on SF-295 CNS, with OVCAR-5 ovarian, in the assay with EKVX NSCLC, with KM12 colon, in the assay on 786-0 renal and with NCI-H23 lung was greater than 100 µM throughout. In addition, the TGI in the assay with HCT-15 colon, in the assay with A549 NSCLC, with BT-549 breast, with MDA-N, in the assay on SN12C renal and with ACHN renal was greater than 100 µM throughout. Besides, the TGI with SNB-19 CNS and with HCT-116 colon was greater than 100 µM throughout.
On to `CCOC(=O)c1cc(=O)c2cccc3c2n1CCS3`, for which the TGI in the assay with SF-295 CNS, in the assay on OVCAR-5 ovarian, in the assay with EKVX NSCLC, in the assay with KM12 colon, with U251 CNS and with 786-0 renal was greater than 100 µM in each case. Further, the TGI with NCI-H23 lung, with HCT-15 colon, in the assay with A549 NSCLC, in the assay with BT-549 breast, in the assay with MDA-N and with SN12C renal was greater than 100 µM in each case. The TGI with ACHN renal, with SNB-19 CNS and in the assay with HCT-116 colon was greater than 100 µM in each case.
Take `COc1cc(/C=C2\CCC(C)C3=C2N=c2s/c(=C/c4ccc(Cl)cc4)c(=O)n2C3c2cc(OC)c(OC)c(OC)c2)cc(OC)c1OC` (stereo unspecified): the TGI in the assay with OVCAR-5 ovarian, with EKVX NSCLC, in the assay with KM12 colon, in the assay with U251 CNS, in the assay with 786-0 renal and with OVCAR-4 ovarian was greater than 100 µM throughout. The TGI with HCT-15 colon, in the assay on A549 NSCLC, in the assay with MDA-N, in the assay with SN12C renal, in the assay on ACHN renal and in the assay with SNB-19 CNS was greater than 100 µM each time. This compound had a TGI in the assay on HCT-116 colon greater than 100 µM.
For the compound `CC(C)(C)OC(=O)NC(CC(=O)OCc1ccccc1)C(=O)NC(C)(C)C(N)=O` (stereo unspecified) (Boc-[ξD](OBn)-[Aib]-NH2), the TGI with SF-295 CNS, in the assay on OVCAR-5 ovarian, with EKVX NSCLC, with KM12 colon, in the assay with U251 CNS and in the assay on 786-0 renal was greater than 100 µM each time. Also, the TGI with OVCAR-4 ovarian, with NCI-H23 lung, with HCT-15 colon, with A549 NSCLC, with BT-549 breast and in the assay on MDA-N was greater than 100 µM throughout. Besides, the TGI in the assay on SN12C renal, in the assay with ACHN renal, in the assay with SNB-19 CNS and in the assay with HCT-116 colon was greater than 100 µM throughout.
For the compound `C/C(=N\O)c1ccc(OCc2cc(C(F)(F)F)cc(C(F)(F)F)c2)cc1`, the TGI is greater than 100 µM in the assay with SF-295 CNS; greater than 100 µM in the assay with OVCAR-5 ovarian; greater than 100 µM in the assay with EKVX NSCLC; 43.9 µM in the assay with KM12 colon; greater than 100 µM with U251 CNS; 98.4 µM in the assay on HCC-2998 colon. In addition, the TGI with 786-0 renal, with OVCAR-4 ovarian, in the assay on NCI-H23 lung, in the assay on HCT-15 colon, with A549 NSCLC and with MDA-N was greater than 100 µM in each case. Moreover, the TGI in the assay on SN12C renal, in the assay with ACHN renal, with SNB-19 CNS and in the assay with HCT-116 colon was greater than 100 µM throughout.
